Patent publication US20130287700A1, “COMPOUNDS FOR THE DIAGNOSIS OF NEURODEGENERATIVE DISORDERS ON THE OLFACTORY EPITHELIUM” (KLINIKUM DARMSTADT GMBH, priority 2010, published 2013)
Entries after “also recorded” stand apart in the source; their conditions may differ.

These compounds were tested on Aβ plaque (assay: Staining of tissue sections with the dyes, fluorescence microscopy: Aβ deposits in brain/hippocampus). Conditions: hippocampus, AD+, DAPI filter.
Type: binding, human
Experimental: (§1) Tissue samples were fixed in 10% buffered formalin solution and embedded in paraffin. Slices of 4 μm thickness were prepared using a microtome and mounted on a slide in a water bath. Deparaffinization was carried out according to the following steps:
(§2) Xylene 15 min, 100% ethanol 10 min, 96% ethanol 10 min, 70% ethanol 10 min and storage in water until staining.
(§3) Staining with dyes of this invention was subsequently performed according to the following procedure steps:
(§4) Dyes of the present invention were applied in 0.01-1% ethanolic or methanolic solution dropwise onto the tissue section (50-200 μL) and incubated in a moist, EtOH/MeOH saturated and light-protected chamber for 10 min.
(§5) In the case of poorly soluble substances, up to 10% DMSO were added and, if required, filtered through a syringe filter (0.45 μm pore size).
(§6) Samples were stained with dyes of the present invention as described in example 21 and subsequently investigated using a Zeiss Axioskop, ABO 100 Hg fluorescent lamp, camera: Leica DFC300FX. Depending on the respective dye used, either a FITC filter or a DAPI filter was utilized.

**Q.** With `CN(C)c1ccc(/C=C/c2cc(/C=C/c3ccc(N(C)C)cc3)ncn2)cc1` [BSc4090, 4-((1E)-2-(6-(4-(dimethylamino)styryl)pyrimidine-4-yl)vinyl)-N,N-dimethylbenzenamine] as the compound, how does the “Structure stained by the dye” value read?
**A.** The value was “Aβ plaque”.

**Q.** How did the “Structure stained by the dye” value turn out when `CSc1nc(/C=C/c2ccc(N(C)C)cc2)cc(/C=C/c2ccc(N(C)C)cc2)n1` [BSc4097, 4,4′-(1E,1′E)-2,2′-(2-(methylthio)pyrimidine-4,6-diyl)bis(ethene-2,1-diyl)bis(N,N-dimethylaniline)] was run?
**A.** Its value is “Aβ plaque”.

**Q.** Which “Structure stained by the dye” value does the source give for `O=C(NCc1cccc(F)c1)Nc1ccc2nonc2c1` [BSc4138, 1-(Benzo[c][1,2,5]oxadiazol-5-yl)-3-(3-fluorobenzyl)urea] here?
**A.** Its value is “Aβ plaque”.

**Q.** How did the “Structure stained by the dye” value turn out when `C(=C\c1cccc2ccccc12)/c1cc(/C=C/c2cccc3ccccc23)ncn1` [BSc4328, 4,6-Bis((E)-2-(naphthalene-1-yl)vinyl)pyrimidine] was run?
**A.** Its value is “Aβ plaque”.

**Q.** For `C(=N/Nc1ccc(-c2nc3ccccc3s2)cc1)/c1cccnc1` [BSc4337, (Z)-1-(4-(benzo[d]thiazol-2-yl)phenyl)-2-((pyridine-3-yl)methylene)hydrazine], which “Structure stained by the dye” value is on record?
**A.** Its value is “Aβ plaque”.

**Q.** For `Cn1c2ccccc2c2cc(/C=N\Nc3ccc(-c4nc5ccccc5s4)cc3)ccc21` [BSc4342, (Z)-1-(4-(benzo[d]thiazol-2-yl)phenyl)-2-((9-methyl-9H-carbazol-3-yl)methylene)hydrazin], which “Structure stained by the dye” value is on record?
**A.** Its value is “Aβ plaque”.

**Q.** `CN(C)c1ccc(/C=C/c2cnc(/C=C/c3ccc(N(C)C)cc3)cn2)cc1` [BSc4352, 4,4′-(1E,1′E)-2,2′-(pyrazine-2,5-diyl)bis(ethene-2,1-diyl)bis(N,N-dimethylaniline)] was tested. Which “Structure stained by the dye” value did it give?
**A.** Its value is “Aβ plaque”.

Same assay, conditions: hippocampus, AD+, FITC filter

**Q.** Which “Structure stained by the dye” value does the source give for `CN(C)c1ccc(/C=C/c2cc(/C=C/c3ccc(N(C)C)cc3)ncn2)cc1` [BSc4090, 4-((1E)-2-(6-(4-(dimethylamino)styryl)pyrimidine-4-yl)vinyl)-N,N-dimethylbenzenamine] here?
**A.** Its value is “Aβ plaque”.

**Q.** With `Cn1cccc1/C=C/c1cc(/C=C/c2cccn2C)ncn1` [BSc4327, 4,6-Bis((E)-2-(1-methyl-1H-pyrrol-2-yl)vinyl)pyrimidine] as the compound, how does the “Structure stained by the dye” value read?
**A.** The value was “Aβ in angiopathy”.

**Q.** With `Cn1cccc1/C=C/c1cnc(/C=C/c2cccn2C)cn1` [BSc4353, 2,5-Bis((E)-2-(1-methyl-1H-pyrrol-2-yl)vinyl)pyrazine] as the compound, how does the “Structure stained by the dye” value read?
**A.** Its value is “Aβ in angiopathy; also recorded: Aβ plaque”.

**Q.** For `COc1ccc(/C=C/c2cnc(/C=C/c3ccc(OC)cc3)cn2)cc1` [BSc4354, 2,5-Bis(4-methoxystyryl)pyrazine], which “Structure stained by the dye” value is on record?
**A.** Its value is “Aβ in angiopathy; also recorded: Aβ plaque”.

What follows are compounds tested on Tau fibril (assay: Staining of tissue sections with the dyes, fluorescence microscopy: Tau in hippocampus). Conditions: person, AD, DAPI filter.
Type: binding, human
Experimental: as §1, §2, §3, §4, §5, §6

**Q.** How did the “Structure stained by the dye” value turn out when `CCN(CC)c1ccc2cc(-c3csc(NNC(=O)c4cccnc4)n3)c(=O)oc2c1` [BSc4007, N′-(4-(7-(diethylamino)-2-oxo-2H-chromen-3-yl)thiazol-2-yl)nicotinohydrazide] was run?
**A.** Its value is “Tau fibril”.

**Q.** Which “Structure stained by the dye” value does the source give for `O=C(NCc1cccc(F)c1)Nc1ccc2nonc2c1` [BSc4138, 1-(Benzo[c][1,2,5]oxadiazol-5-yl)-3-(3-fluorobenzyl)urea] here?
**A.** The value was “Tau fibril”.
